ChEMBL document CHEMBL5728812, “Inhibitors of Plasma Kallikrein and uses thereof” (2021)

Target: Plasma kallikrein (Homo sapiens, UniProt P03952)
Test: Inhibitory Activity Assay: Plasma Kallikrein: The example compounds were evaluated for inhibition of the human activated kallikrein enzyme in two formats of an assay employing a fluorogenic peptide substrate. In one assay format, the concentrations of reagents were as follows: 20 mM Tris pH 7.5, 1 mM EDTA, 150 mM sodium chloride, 0.1% PEG-400, 0.1% Triton X-100, 500 pM activated kallikrein enzyme, 300 uM Pro-Phe-Arg-7-amido-4-methylcoumarin substrate. Prior to reaction initiation with substrate, enzyme and inhibitors were preincubated for 30 min at room temperature. After initiation with substrate, reactions were incubated for 10 min at room temperature and fluorescence emission at 460 nm from 380 nm excitation measured with a microplate reader. In another assay format, the concentrations of reagents were as follows: 20 mM Tris pH 7.5, 1 mM EDTA, 150 mM sodium chloride, 0.1% PEG-400, 0.1% Triton X-100, 5 pM activated kallikrein enzyme, 300 uM Pro-Phe-Arg-7-amido-4-methylcoumarin substrate. Prior to reaction initiation with substrate, enzyme and inhibitors were preincubated for 30 min at room temperature. After initiation with substrate, reactions were incubated for 18 hr at room temperature and fluorescence emission at 460 nm from 380 nm excitation measured with a microplate reader.

Plasma kallikrein, sequence (P03952 20-390 limits assumed): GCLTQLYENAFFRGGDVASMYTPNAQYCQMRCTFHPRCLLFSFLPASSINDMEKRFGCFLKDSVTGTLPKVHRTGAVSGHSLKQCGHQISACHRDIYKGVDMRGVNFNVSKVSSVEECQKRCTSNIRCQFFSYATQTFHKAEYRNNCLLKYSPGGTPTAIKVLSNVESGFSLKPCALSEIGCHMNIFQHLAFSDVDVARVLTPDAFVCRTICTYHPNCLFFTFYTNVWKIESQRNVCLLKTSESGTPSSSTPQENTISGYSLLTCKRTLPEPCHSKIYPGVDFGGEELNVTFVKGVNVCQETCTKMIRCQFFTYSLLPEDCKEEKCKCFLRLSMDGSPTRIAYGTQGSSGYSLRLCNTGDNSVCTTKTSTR
Plasma kallikrein, sequence (P03952 391-638 limits assumed): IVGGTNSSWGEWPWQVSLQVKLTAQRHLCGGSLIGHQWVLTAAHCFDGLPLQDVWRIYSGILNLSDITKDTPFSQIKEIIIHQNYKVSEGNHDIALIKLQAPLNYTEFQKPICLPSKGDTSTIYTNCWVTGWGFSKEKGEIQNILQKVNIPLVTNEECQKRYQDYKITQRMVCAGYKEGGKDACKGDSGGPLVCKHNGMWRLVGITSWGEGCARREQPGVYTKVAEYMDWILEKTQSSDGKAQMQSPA

EC50: < 100 nM
Compound: CNC(=O)[C@H](CCCCNC(=N)N)NC(=O)c1csc([C@@H]2C[C@@H](N)CN2C(=O)c2ccc3cc(Cl)ccc3n2)n1
